These results are taken from US5795977A, “Water soluble adenosine kinase inhibitors” (Metabasis Therapeutics, Inc., priority 1996, dated 1998).

The test system of one series is Female SA rats. The series is described as follows: Liver toxicity assay. The class given is in vivo. The conditions noted are these: rat, i.v. infusion, total dose 75 μmole/kg, serum. Here is the method: Female SA rats (150-200 g) are anesthetized with halothane and cannulated via the internal jugular vein. The animals are allowed to recover for 3 days. At this time, 37.5 μmole/kg of an AK inhibitor is dissolved in 50% PEG400 and infused through the jugular catheter over 20 minutes. Twelve hours later, an additional 37.5 μmole/kg is infused over 20 minutes (total dose =75 μmole/kg). […] Liver enzymes (serum glutamic-oxaloacetic transaminase (SGOT), serum glutamic-pyruvic transaminase (SGPT), alkaline phosphatase) and total bilirubin in the serum samples are determined by a commercial laboratory.

Another series deals with mice. The following applies: cited from earlier work.
The target of series [1] is partially purified pig heart adenosine kinase or recombinant human adenosine kinase. The series can be described thus: AK inhibition. The class given is biochemical. The following applies: 0.5 μM [U-14C] adenosine, pH 7.0, 37° C., 20 minutes. Here is the method: Adenosine kinase activity was measured essentially as described by Yamada et al. Biochim. Biophys. Acta 660, 36-43 (1988) with a few minor modifications. Assay mixtures contained 50 mM TRIS-maleate buffer, pH 7.0, 0.1% BSA, 1 mM ATP 1 mM MgCl2, 0.5 μM [U-^14 C] adenosine (400-600 mCi/mmol) and varying duplicate concentrations of inhibitor. […] The amount of ^14 C-AMP was quantified by scintillation counting.

The subject of series [2] is male SA rats (maximal electroshock seizures). The series is described as follows: Anticonvulsant activity, maximal electroshock seizures (MES). The class given is in vivo. The conditions noted are these: rat, po, fasted; >> = no activity at the stated dose. Here is the method: The anticonvulsant activity of the tested compounds was evaluated in male SA rats (100-150g, Simonsen) using the maximal electroshock (MES) model described in Swinyard et al., Antiepileptic Drugs, 3d Ed. at 85-102 (Levy, et al., eds.), NY: Raven Press (1989). The rats were maintained on a 12/12 light/dark cycle in temperature controlled facilities with free access to food and water. For p.o. administration, the animals are fasted overnight, prior to the experiment. One to two hours prior to seizure testing, the animals were injected interperitoneally (ip) or orally (per os, po) with one of various doses of test compound dissolved in DMSO or PEG 400.
This endpoint was expressed as the percentage of animals in which the response was inhibited.

For another series, the system named is Rats (carrageenan paw). The series can be described thus: Anti-inflammatory activity, carrageenan paw swelling. The class given is in vivo. The conditions noted are these: rat, 10 mg/kg, swelling after 3 hours; for Carrageenan Paw (% inhibition) po: oral gavage. Here is the method:
Carrageenan (Type λ) was suspended in sterile PBS at 1% (w/v), autoclaved for 30 minutes, and stored at room temperature. Rats were pretreated with vehicle or AK inhibitor (10 mg/kg) by oral gavage or i.p. administration and the volume of the left hind paw was measured using a water displacement plethysmometer (Stoelting Co., Wood Dale, Ill.). One hour after oral treatment or 30 minutes after i.p. treatment, the rats were briefly anesthetized, and 0.1 ml of the carrageenan solution was injected subcutaneously into the planar surface of the left hind paw. The ensuing paw swelling was measured by plethysmometry after 3 hours. The paw volume in millileters was […]. Data are presented in Table 2 as the percent inhibition of paw swelling in AK inhibitor treated animals, compared to vehicle treated control animals.

The next series has as its system ischemic cerebral injury. The following applies: in vivo; cited from earlier work.
Another series deals with isolated rat hearts. The conditions noted are these: alone, cited from earlier work.
Series [3] relates to isolated guinea pig hearts. The following applies: in the absence of ADA inhibition; cited from earlier work.
For the next series, the system named is rat cardiomyocytes. The conditions noted are these: inhibition of adenosine deaminase alone; cited from earlier work.

pIC50: −log10 of the molar value. Where a name gives a salt, the structure may show the parent alone. Read-outs that look alike come from different tables or passages of the source. Where only a bound is given, the exact number is not on record here.

For `C[C@H]1O[C@@H](n2cc(I)c3c(N)ncnc32)[C@H](O)[C@@H]1O` [REF.A, reference compound], in the series with Female SA rats, the SGPT is 76 IU/L and the “Total Bilirubin” value is recorded as 0.76 mg/dL. The “flaccidity (skeletal muscle relaxation)” value in the series on mice is reported as “pronounced general flaccidity”.

In the case of `C[C@H]1O[C@@H](n2cc(-c3ccccc3)c3c(NCc4ccncc4)ncnc32)[C@H](O)[C@@H]1O` [Compound 49, 4-N-(4-pyridylmethyl)amino-5-phenyl-7-(5-deoxy-1-β-D-ribofuranosyl)-pyrrolo[2,3-d]pyrimidine], in series [1], the pIC50 is 7.17. The compound also yielded an ED50 in series [2] greater than 40 mg/kg.

Take `OC[C@@H]1O[C@@H](n2cc(-c3ccccc3)c3c(Nc4ccc(CCN5CCNCC5)cc4)ncnc32)[C@H](O)[C@@H]1O` [Compound 12, 4-N-[4-(1-piperazinoethyl)phenyl]amino-5-phenyl-7-α-L-lyxofuranosylpyrrolo[2,3-d]pyrimidine]: in the series with Female SA rats, the “Alkaline Phosphatase” value was determined as 106 IU/L, the SGOT is given as 211 IU/L, the SGPT turned out to be 76 IU/L and the “Total Bilirubin” value came to 0.41 mg/dL. In the series with Rats (carrageenan paw), the “Carrageenan Paw (% inhibition) ip” value stood at 58.8% and the “Carrageenan Paw (% inhibition) po” value is 51.0%. Also, the pIC50 in [1] is 9.52.

As to `Nc1ncnc2c1c(I)cn2[C@@H]1O[C@H](CO)[C@@H](O)[C@H]1O` [5-iodotubercidin], the “protection against ischemic cerebral injury” value in the series with ischemic cerebral injury is on record as “does not protect against ischemic cerebral injury”. Also, the perfusate adenosine concentration entry was “no increase in perfusate adenosine concentration” with isolated rat hearts (hypoxic, anoxic or ischemic conditions) and “no increase in perfusate adenosine concentration” in the series with isolated rat hearts (normoxic conditions). For the same compound, in the series on mice, the “flaccidity (skeletal muscle relaxation)” value was “pronounced general flaccidity”.

As for `C[C@H]1O[C@@H](n2cc(-c3ccccc3)c3c(Nc4ccc(OCC(=O)N5CCNCC5)cc4)ncnc32)[C@H](O)[C@@H]1O` [Compound 196, 4-N-[4-(4-piperazinocarbonylmethyloxy)phenyl]amino-5-phenyl-7-(5-deoxy-1-β-D-ribofuranosyl)pyrrolo(2,3-d)pyrimidine], in the series on Rats (carrageenan paw), the “Carrageenan Paw (% inhibition) ip” value is given as 11.8% and the “Carrageenan Paw (% inhibition) po” value turned out to be 0.0%. Moreover, the pIC50 in [1] is 9.46.

As for `C[C@H]1O[C@@H](n2cc(-c3ccccc3)c3c(Nc4ccc(CN(C)C)cc4)ncnc32)[C@H](O)[C@@H]1O` [Compound 1, 4-N-(4-(N,N-Dimethylaminomethyl)phenyl)amino-5-phenyl-7-(5-deoxy-β-D-ribofuranosyl)pyrrolo[2,3-d]pyrimidine], in the series on Female SA rats, the “Alkaline Phosphatase” value turned out to be 131 IU/L, the SGOT is recorded as 75 IU/L and the SGPT is listed as 44 IU/L. For the same compound, the “Carrageenan Paw (% inhibition) ip” value in the series on Rats (carrageenan paw) was found to be 26.0%.

For the compound `CCN(CC)CCc1ccc(Nc2ncnc3c2c(-c2ccccc2)cn3[C@@H]2O[C@H](C)[C@@H](O)[C@H]2O)cc1` [Compound 6, 4-N-[4-(2-N,N-diethylaminoethyl)phenyl]amino-5-phenyl-7-(5-deoxy-β-D-ribofuranosyl)pyrrolo[2,3-d]pyrimidine], in the series on Female SA rats, the “Alkaline Phosphatase” value came out at 104 IU/L, the SGOT worked out at 306 IU/L, the SGPT came to 110 IU/L and the “Total Bilirubin” value worked out at 0.43 mg/dL. Also, in the series on Rats (carrageenan paw), the “Carrageenan Paw (% inhibition) ip” value is 81.5% and the “Carrageenan Paw (% inhibition) po” value is given as 42.6%. Besides, the pIC50 in [1] was 9.00.

For the compound `NC[C@H]1O[C@@H](n2nc(Br)c3c(N)ncnc32)[C@H](O)[C@@H]1O` [REF.B, 4amino-1-(5-amino-5-deoxy-1-D-ribofuranosyl)-3-bromopyrazolo[3,4d]pyrimidne HCL, reference compound], in the series on Female SA rats, the SGOT was 100 IU/L, the SGPT is listed as 41 IU/L and the “Total Bilirubin” value amounted to 0.30 mg/dL.

For the compound `NCCc1ccc(Nc2ncnc3c2c(-c2ccccc2)cn3[C@@H]2O[C@@H](CO)[C@@H](O)[C@H]2O)cc1` [Compound 16, 4-N-(4-(2-aminoethyl)phenyl)amino-5-phenyl-7-α-L-lyxofuranosylpyrrolo[2,3-d]pyrimidine], in the series with Rats (carrageenan paw), the “Carrageenan Paw (% inhibition) ip” value was found to be 31.6% and the “Carrageenan Paw (% inhibition) po” value is on record as 12.4%. Further, the pIC50 in series [1] is 9.00.

`NC[C@H]1O[C@@H](n2cnc3c(N)ncnc32)[C@H](O)[C@@H]1O` [5'-amino-5'-deoxyadenosine]: the “effect on adenosine release” value in [3] was “not apparent”.

On to `CC(=O)Nc1ccc(Nc2ncnc3c2c(I)cn3[C@@H]2O[C@H](C)[C@H]3OC(C)(C)O[C@H]32)cc1` [Compound 29, 4-N-[4-(N-acetylamino)phenyl]amino-5-iodo-7-(1-β-D-5-deoxy-2,3-O-isopropylideneribose)pyrrolo[2,3-d]pyrimidine], for which, in the series on Rats (carrageenan paw), the “Carrageenan Paw (% inhibition) ip” value was 26.1% and the “Carrageenan Paw (% inhibition) po” value was 14.9%. Also, the pIC50 in [1] is 9.30.

As to `C[C@H]1O[C@@H](n2cc(-c3ccccc3)c3c(Nc4ccc(CCN(C)C)cc4)ncnc32)[C@H](O)[C@@H]1O` [Compound 7, 4-N-[4-(2-N,N-dimethylaminoethyl)phenyl]amino-5-phenyl-7-(5-deoxy-β-D-ribofuranosyl)pyrrolo[2,3-d]pyrimidine], in the series on Rats (carrageenan paw), the “Carrageenan Paw (% inhibition) ip” value is 19.0% and the “Carrageenan Paw (% inhibition) po” value stood at 7.7%. For the same compound, the pIC50 in [1] was 9.00.

`C[C@H]1O[C@@H](n2cc(-c3ccccc3)c3c(Nc4ccc(CCS(=O)(=O)O)cc4)ncnc32)[C@H](O)[C@@H]1O` [Compound 265, 4-N[4-(2-Sulfonyloxyethyl)phenylamino]-5-phenyl-7-(5-deoxy-1-β-D-ribofuranosyl)pyrrolo[2,3-d]pyrimidine]: in the series on Rats (carrageenan paw), the “Carrageenan Paw (% inhibition) ip” value was 10.0% and the “Carrageenan Paw (% inhibition) po” value was found to be 6.2%. In addition, in series [1], the pIC50 is 8.70.

As for `C[C@H]1O[C@@H](n2cc(-c3cccnc3)c3c(Nc4ccccc4)ncnc32)[C@H](O)[C@@H]1O` [Compound 47, 4-N-Phenylamino-5-(3-pyridino)-7-(5-deoxy-1-β-D-ribofuranosyl) pyrrolo[2,3-d]pyrimidine], in the series on Rats (carrageenan paw), the “Carrageenan Paw (% inhibition) ip” value is listed as 0.0% and the “Carrageenan Paw (% inhibition) po” value is 9.8%. For the same compound, the pIC50 in series [1] was 7.26.

For `C[C@H]1O[C@@H](n2cc(-c3ccccc3)c3c(Nc4ccc(CCNC(=O)c5cccnc5)cc4)ncnc32)[C@H](O)[C@@H]1O` [Compound 268, 4-N-[2-(Nicotinylaminoethyl)phenyl]amino-5-phenyl-7-(5-deoxy-1-β-D-ribofuranosyl)pyrrolo(2,3-d)pyrimidine], in the series with Rats (carrageenan paw), the “Carrageenan Paw (% inhibition) ip” value was determined as 0.0% and the “Carrageenan Paw (% inhibition) po” value came out at 7.1%. Besides, in [1], the pIC50 was 9.00.

Consider `CCN(CC)CCNCCc1ccc(Nc2ncnc3c2c(-c2ccccc2)cn3[C@@H]2O[C@H](C)[C@@H](O)[C@H]2O)cc1` [Compound 5, 4-N-[4-(2-(2-N,N-diethylaminoethyleneamino)ethyl)phenyl]amino-5-phenyl-7-(5-deoxy-β-D-ribofuranosyl)pyrrolo[2,3-d]pyrimidine], for which, in the series on Rats (carrageenan paw), the “Carrageenan Paw (% inhibition) ip” value is 0.0% and the “Carrageenan Paw (% inhibition) po” value stood at 4.1%. Further, the pIC50 in series [1] is 9.00. In series [2], this compound registered an ED50 greater than 10 mg/kg.

`OC[C@H]1O[C@@H](n2cnc3c2N=CNC[C@H]3O)C[C@@H]1O` [2'-deoxycoformycin]: in the series on rat cardiomyocytes, the adenosine release entry is “no effect on adenosine release”.
